System: miR-155
Test: Gel shift binding assay (PAGE, SYBR Gold)
Procedure: (1D) Dose-dependent gel shift binding assay of target miR-155 ([…]) with PNA-155 and γtcPNA-155 at indicated concentrations. The samples were prepared in the physiological buffer (2 mM MgCl2, 150 mM KCl, 10 mM NaPi) and incubated for 24 hours at physiological temperature (37° C.) followed by PAGE separation and visualization of bands by SYBr® Gold staining. […] (iii) γtcPNA-155 binding with the target miR-155 by Watson Crick and Hoogsteen base pairing. (iv) γtcPNA-155 binding with the miR-155 by Watson-Crick base pairing. (v) Clamp segment of γtcPNA-155 binding with the target miR-155 by Hoogsteen base pairing.
Gel shift assay: Different concentration of PNA-155 or gamma tcPNA-155 were made in physiological buffer (2 mM MgCl2, 150 mM KCl, 10 mM NaPi) and incubated overnight at 37° C. with 1 μM DNA-155 target. The samples were run through 8% Polyacrylamide gel electrophoresis (PAGE) gel in IX TBE buffer at 120 volts for 35 mins. The gel was stained with SyBr Gold for two mins and visualized using Gel Doc™ EZ Imager (Bio-rad). […]
Next, we evaluated the binding affinity of γtcPNA-155 and PNA-155 with the miR-155 target by polyacrylamide gel electrophoresis (PAGE) based protocols (FIG. 1D). We incubated PNA-155 and γtcPNA-155 with miR-155 at indicated concentrations in physiological buffer and temperature and assessed the binding by PAGE followed by SYBR gold staining. […]

Substance: γtcPNA-155: serine gamma tail-clamp anti-miR-155 PNA, RR-TJJJJ-OOO-ACCCCTATCACGATTAGCATTAA-RR, SEQ ID NO: 3 (all peptide nucleic acid (PNA); serine gamma PNA, tail-clamp TJJJJ via linkers, Arg-Arg at both ends)
- binding affinity with miR-155 target (comparison): stronger binding affinity compared to regular PNA-155

Source: patent publication US20260092085A1, “SYNTHETIC TRIPLEX PEPTIDE NUCLEIC ACID-BASED INHIBITORS FOR CANCER THERAPY” (University of Connecticut, priority 2022, published 2026)
